Tests used:
[1] = tested on: corn; test: Test C preemergence; assay type: in vivo, Zea mays; conditions: for Corn plant response rating: preemergence
Summary of the method: (§1)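 Injury was assessed visually against controls 13 to 15 days after application, with 0 meaning no effect and 100 full control; missing entries are shown as a dash. Preemergence sprays hit seeded loam–sand soil, postemergence sprays hit 1- to 4-leaf plants.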

[2] = tested on: barnyardgrass; test: Test C postemergence; assay type: in vivo, Echinochloa crus-galli
Summary of the method: as §1

[3] = tested on: barnyardgrass; test: Test A preemergence; assay type: in vivo, Echinochloa crus-galli
Summary of the method: (§2)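 Greenhouse pot test, loam/sand soil. Formulation: non-phytotoxic solvent mix plus surfactant. Pre: directed spray onto soil after sowing. Post: plants at 1–2 leaf, 2–10 cm. Rated visually vs untreated controls at ~10 d, 0 (no effect) to 100 (complete control).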

[4] = tested on: corn; test: Test C postemergence; assay type: in vivo, Zea mays
Summary of the method: as §1

[5] = tested on: Italian ryegrass; test: Test C postemergence; assay type: in vivo, Lolium multiflorum
Summary of the method: as §1

[6] = tested on: lambsquarters; test: Test C postemergence; assay type: in vivo, Chenopodium album
Summary of the method: as §1

[7] = tested on: blackgrass; test: Test C preemergence; assay type: in vivo, Alopecurus myosuroides; conditions: for Blackgrass plant response rating: preemergence
Summary of the method: as §1

[8] = tested on: oilseed rape; test: Test C preemergence; assay type: in vivo, Brassica napus; conditions: for Oilseed Rape plant response rating: preemergence
Summary of the method: as §1

[9] = tested on: barnyardgrass; test: Test C preemergence; assay type: in vivo, Echinochloa crus-galli; conditions: for Barnyardgrass plant response rating: preemergence
Summary of the method: as §1

[10] = tested on: pigweed; test: Test C postemergence; assay type: in vivo, Amaranthus retroflexus
Summary of the method: as §1

[11] = tested on: giant foxtail; test: Test A preemergence; assay type: in vivo, Setaria faberii
Summary of the method: as §2

[12] = tested on: morningglory; test: Test C preemergence; assay type: in vivo, Ipomoea coccinea; conditions: for Morningglory plant response rating: preemergence
Summary of the method: as §1

[13] = tested on: ragweed; test: Test C preemergence; assay type: in vivo, Ambrosia elatior; conditions: for Ragweed plant response rating: preemergence
Summary of the method: as §1

[14] = tested on: soybean; test: Test C preemergence; assay type: in vivo, Glycine max; conditions: for Soybean plant response rating: preemergence
Summary of the method: as §1

[15] = tested on: waterhemp; test: Test C postemergence; assay type: in vivo, Amaranthus rudis
Summary of the method: as §1

[16] = tested on: blackgrass; test: Test C postemergence; assay type: in vivo, Alopecurus myosuroides
Summary of the method: as §1

[17] = tested on: waterhemp; test: Test C preemergence; assay type: in vivo, Amaranthus rudis; conditions: for Waterhemp plant response rating: preemergence
Summary of the method: as §1

[18] = tested on: velvetleaf; test: Test A preemergence; assay type: in vivo, Abutilon theophrasti
Summary of the method: as §2

[19] = 16 g ai/ha, scale 0 to 100 (0 no effect, 100 complete control)
[20] = 62 g ai/ha, scale 0 (no effect) to 100 (complete control)
[21] = 125 g ai/ha, scale 0 (no effect) to 100 (complete control)
[22] = Preemergence, 31 g ai/ha, scale 0 to 100, 0 no effect, 100 complete control
[23] = 16 g ai/ha, postemergence, visual rating, scale 0 to 100 (0 no effect, 100 complete control), 13 to 15 days
[24] = Postemergence, 31 g ai/ha, scale 0 to 100 (0 no effect, 100 complete control), 13 to 15 days
[25] = Postemergence, 62 g ai/ha, scale 0 to 100 (0 no effect, 100 complete control)
[26] = 125 g ai/ha, 0 to 100 scale where 0 is no effect and 100 is complete control
[27] = 500 g ai/ha, 0 to 100 scale, 0 no effect, 100 complete control, approx. 10 days
[28] = 31 g ai/ha, postemergence, visual rating, scale 0 to 100 (0 no effect, 100 complete control), 13 to 15 days

FCc1cccc(Oc2ncc(Cl)cn2)c1-n1cc(Br)cn1 [Compound 83]
Corn plant response rating [1, 19]: 0 | Corn plant response rating [1, 20]: 0 | Corn plant response rating [1, 21]: 15 | Plant response rating, Corn [1, 22]: 0 | Barnyardgrass plant response rating [2, 23]: 5 | Plant response rating (0 to 100), Barnyardgrass ([2]; 125 g ai/ha, postemergence): 5 | Plant response rating, Barnyardgrass [2, 24]: 5 | Plant response rating, Barnyardgrass [2, 25]: 5 | Plant response rating, Barnyardgrass [3, 26]: 60 | Barnyardgrass plant response rating [3, 27]: 90 | Corn plant response rating [4, 23]: 0 | Plant response rating (0 to 100), Corn ([4]; 125 g ai/ha, postemergence): 10 | Plant response rating, Corn [4, 24]: 5 | Plant response rating, Corn [4, 25]: 5 | Plant response rating (0 to 100), Ryegrass, Italian ([5]; 125 g ai/ha, postemergence): 5 | Plant response rating, Ryegrass, Italian [5, 24]: 0 | Plant response rating, Ryegrass, Italian [5, 25]: 5 | Plant response rating (0 to 100), Lambsquarters ([6]; 125 g ai/ha, postemergence): 80 | Plant response rating, Lambsquarters [6, 24]: 80 | Plant response rating, Lambsquarters [6, 25]: 60 | Blackgrass plant response rating [7, 19]: 0 | Blackgrass plant response rating [7, 20]: 90 | Blackgrass plant response rating [7, 21]: 85 | Plant response rating, Blackgrass [7, 22]: 5 | Oilseed Rape plant response rating [8, 19]: 75 | Oilseed Rape plant response rating [8, 20]: 98 | Oilseed Rape plant response rating [8, 21]: 100 | Plant response rating, Oilseed Rape [8, 22]: 95 | Barnyardgrass plant response rating [9, 19]: 5 | Barnyardgrass plant response rating [9, 20]: 45 | Barnyardgrass plant response rating [9, 21]: 90 | Plant response rating, Barnyardgrass [9, 22]: 5 | Plant response rating (0 to 100), Pigweed ([10]; 125 g ai/ha, postemergence): 85 | Plant response rating, Pigweed [10, 24]: 75 | Plant response rating, Pigweed [10, 25]: 75 | Plant response rating, Foxtail, Giant [11, 26]: 100 | Foxtail, Giant plant response rating [11, 27]: 100 | Morningglory plant response rating [12, 19]: 0 | Morningglory plant response rating [12, 20]: 0 | Morningglory plant response rating [12, 21]: 10 | Plant response rating, Morningglory [12, 22]: 0 | Ragweed plant response rating [13, 19]: 0 | Ragweed plant response rating [13, 20]: 40 | Ragweed plant response rating [13, 21]: 45 | Plant response rating, Ragweed [13, 22]: 35 | Soybean plant response rating [14, 19]: 5 | Soybean plant response rating [14, 20]: 60 | Soybean plant response rating [14, 21]: 75 | Plant response rating, Soybean [14, 22]: 10 | Plant response rating (0 to 100), Waterhemp ([15]; 125 g ai/ha, postemergence): 90 | Plant response rating, Waterhemp [15, 24]: 50 | Plant response rating, Waterhemp [15, 25]: 70 | Blackgrass plant response rating [16, 23]: 0 | Plant response rating (0 to 100), Blackgrass ([16]; 125 g ai/ha, postemergence): 20 | Plant response rating, Blackgrass [16, 24]: 5 | Plant response rating, Blackgrass [16, 25]: 5 | Waterhemp plant response rating [17, 19]: 75 | Waterhemp plant response rating [17, 20]: 100 | Waterhemp plant response rating [17, 21]: 100 | Plant response rating, Waterhemp [17, 22]: 100

Fc1cccc(Oc2ncc(Cl)cn2)c1-n1cc(Br)cn1 [Compound 178, 2-[2-(4-bromo-1H-pyrazol-1-yl)-3-fluorophenoxy]-5-chloropyrimidine]
pest or weed control at 16 g/ha ([2]; Echinochloa crus-galli, post-emergence, 16 g ai/ha, postemergence, 0 is no effect, 100 is complete control, read-out: Plant response rating (0 to 100), Barnyardgrass): 5% | pest or weed control at 31 g/ha ([2]; Echinochloa crus-galli, post-emergence, 31 g ai/ha, postemergence, visual rating, scale 0 to 100 (0 no effect, 100 complete control), 13 to 15 days, read-out: Barnyardgrass plant response rating): 5% | pest or weed control at 125 g/ha ([2]; Echinochloa crus-galli, post-emergence, 125 g ai/ha, postemergence, visual rating, scale 0 to 100 (0 no effect, 100 complete control), read-out: Plant response rating, Barnyardgrass): 10% | pest or weed control at 62 g/ha ([2]; Echinochloa crus-galli, post-emergence, Postemergence, 62 g ai/ha, scale 0 to 100 (0 no effect, 100 complete control), read-out: Plant response rating, Barnyardgrass): 5% | pest or weed control at 125 g/ha ([3]; Echinochloa crus-galli, pre-emergence, 240 h, 125 g ai/ha, 0 to 100 scale where 0 is no effect and 100 is complete control, read-out: Plant response rating, Barnyardgrass): 90% | pest or weed control at 500 g/ha ([3]; Echinochloa crus-galli, pre-emergence, 240 h, 500 g ai/ha, 0 to 100 scale where 0 is no effect and 100 is complete control, read-out: Barnyardgrass plant response rating): 100% | plant injury at 16 g/ha ([4]; Zea mays, post-emergence, 16 g ai/ha, postemergence, 0 is no effect, 100 is complete control, read-out: Plant response rating (0 to 100), Corn): 5% | plant injury at 31 g/ha ([4]; Zea mays, post-emergence, 31 g ai/ha, postemergence, visual rating, scale 0 to 100 (0 no effect, 100 complete control), 13 to 15 days, read-out: Corn plant response rating): 10% | Corn plant response rating (crop injury, 0 = no effect, 100 = complete kill) at 125 g/ha ([4]; Zea mays, post-emergence, 125 g ai/ha, postemergence, visual rating, scale 0 to 100 (0 no effect, 100 complete control)): 10% | Corn plant response rating (crop injury, 0 = no effect, 100 = complete kill) at 62 g/ha ([4]; Zea mays, post-emergence, Postemergence, 62 g ai/ha, scale 0 to 100 (0 no effect, 100 complete control)): 10% | Ryegrass, Italian plant response rating [5, 28]: 0 | pest or weed control at 16 g/ha ([5]; Lolium multiflorum, post-emergence, 16 g ai/ha, postemergence, 0 is no effect, 100 is complete control, read-out: Plant response rating (0 to 100), Ryegrass, Italian): 0% | pest or weed control at 125 g/ha ([5]; Lolium multiflorum, post-emergence, 125 g ai/ha, postemergence, visual rating, scale 0 to 100 (0 no effect, 100 complete control), read-out: Plant response rating, Ryegrass, Italian): 20% | pest or weed control at 62 g/ha ([5]; Lolium multiflorum, post-emergence, Postemergence, 62 g ai/ha, scale 0 to 100 (0 no effect, 100 complete control), read-out: Plant response rating, Ryegrass, Italian): 0% | Lambsquarters plant response rating [6, 28]: 80 | pest or weed control at 16 g/ha ([6]; Chenopodium album, post-emergence, 16 g ai/ha, postemergence, 0 is no effect, 100 is complete control, read-out: Plant response rating (0 to 100), Lambsquarters): 70% | pest or weed control at 125 g/ha ([6]; Chenopodium album, post-emergence, 125 g ai/ha, postemergence, visual rating, scale 0 to 100 (0 no effect, 100 complete control), read-out: Plant response rating, Lambsquarters): 98% | pest or weed control at 62 g/ha ([6]; Chenopodium album, post-emergence, Postemergence, 62 g ai/ha, scale 0 to 100 (0 no effect, 100 complete control), read-out: Plant response rating, Lambsquarters): 85% | Pigweed plant response rating [10, 28]: 85 | pest or weed control at 16 g/ha ([10]; Amaranthus retroflexus, post-emergence, 16 g ai/ha, postemergence, 0 is no effect, 100 is complete control, read-out: Plant response rating (0 to 100), Pigweed): 80% | pest or weed control at 125 g/ha ([10]; Amaranthus retroflexus, post-emergence, 125 g ai/ha, postemergence, visual rating, scale 0 to 100 (0 no effect, 100 complete control), read-out: Plant response rating, Pigweed): 98% | pest or weed control at 62 g/ha ([10]; Amaranthus retroflexus, post-emergence, Postemergence, 62 g ai/ha, scale 0 to 100 (0 no effect, 100 complete control), read-out: Plant response rating, Pigweed): 95% | Velvetleaf plant response rating (0 to 100 scale) ([18]; 125 g ai/ha): 80 | pest or weed control at 500 g/ha ([18]; Abutilon theophrasti, pre-emergence, 240 h, 500 g ai/ha, 0 to 100 scale where 0 is no effect and 100 is complete control, read-out: Velvetleaf plant response rating): 100% | pest or weed control at 125 g/ha ([11]; Setaria faberi, pre-emergence, 240 h, 125 g ai/ha, 0 to 100 scale where 0 is no effect and 100 is complete control, read-out: Plant response rating, Foxtail, Giant): 100% | pest or weed control at 500 g/ha ([11]; Setaria faberi, pre-emergence, 240 h, 500 g ai/ha, 0 to 100 scale where 0 is no effect and 100 is complete control, read-out: Foxtail, Giant plant response rating): 100% | Waterhemp plant response rating [15, 28]: 90 | pest or weed control at 16 g/ha ([15]; Amaranthus tuberculatus, post-emergence, 16 g ai/ha, postemergence, 0 is no effect, 100 is complete control, read-out: Plant response rating (0 to 100), Waterhemp): 80% | pest or weed control at 125 g/ha ([15]; Amaranthus tuberculatus, post-emergence, 125 g ai/ha, postemergence, visual rating, scale 0 to 100 (0 no effect, 100 complete control), read-out: Plant response rating, Waterhemp): 100% | pest or weed control at 62 g/ha ([15]; Amaranthus tuberculatus, post-emergence, Postemergence, 62 g ai/ha, scale 0 to 100 (0 no effect, 100 complete control), read-out: Plant response rating, Waterhemp): 90% | pest or weed control at 16 g/ha ([16]; Alopecurus myosuroides, post-emergence, 16 g ai/ha, postemergence, 0 is no effect, 100 is complete control, read-out: Plant response rating (0 to 100), Blackgrass): 0% | pest or weed control at 31 g/ha ([16]; Alopecurus myosuroides, post-emergence, 31 g ai/ha, postemergence, visual rating, scale 0 to 100 (0 no effect, 100 complete control), 13 to 15 days, read-out: Blackgrass plant response rating): 5% | pest or weed control at 125 g/ha ([16]; Alopecurus myosuroides, post-emergence, 125 g ai/ha, postemergence, visual rating, scale 0 to 100 (0 no effect, 100 complete control), read-out: Plant response rating, Blackgrass): 60% | pest or weed control at 62 g/ha ([16]; Alopecurus myosuroides, post-emergence, Postemergence, 62 g ai/ha, scale 0 to 100 (0 no effect, 100 complete control), read-out: Plant response rating, Blackgrass): 20%
